The values below come from patent US7541359B2, “N-heteroarylpiperazinyl ureas as modulators of fatty acid amide hydrolase” (Janssen Pharmaceutica N.V., priority 2005, dated 2009).

One assay deals with CREAE mice. The note with it: model of multiple sclerosis; cited from earlier work.
Assay [1] deals with rats. The following applies: cited from earlier work.
Assay [2] concerns rats. The following applies: cited from earlier work. The source holds these as a separate data set.
Another assay deals with T1, Rat FAAH (Rattus norvegicus, UniProt P97612).
T1 construct: expressed in transfected cells; host or cells: SK-N-MC cells, electroporated, G418-selected clones
T1 sequence (P97612 1-579): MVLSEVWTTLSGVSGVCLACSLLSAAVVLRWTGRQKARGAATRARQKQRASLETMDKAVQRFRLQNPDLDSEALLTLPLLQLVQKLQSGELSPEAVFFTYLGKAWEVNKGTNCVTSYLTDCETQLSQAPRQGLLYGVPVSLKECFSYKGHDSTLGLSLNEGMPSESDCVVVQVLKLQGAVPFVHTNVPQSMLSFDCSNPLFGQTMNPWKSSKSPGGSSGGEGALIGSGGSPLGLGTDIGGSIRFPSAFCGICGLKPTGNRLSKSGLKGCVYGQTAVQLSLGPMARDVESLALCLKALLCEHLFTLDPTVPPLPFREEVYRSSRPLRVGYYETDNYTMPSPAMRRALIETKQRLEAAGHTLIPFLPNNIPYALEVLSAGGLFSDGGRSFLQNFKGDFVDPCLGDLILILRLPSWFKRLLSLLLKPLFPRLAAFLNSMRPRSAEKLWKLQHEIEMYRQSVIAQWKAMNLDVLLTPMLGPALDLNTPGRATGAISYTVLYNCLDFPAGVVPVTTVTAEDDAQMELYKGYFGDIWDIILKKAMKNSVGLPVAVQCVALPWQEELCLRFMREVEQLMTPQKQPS
Put plainly: Assay Method 3: FAAH assay, homogenate of SK-N-MC cells transfected with rat FAAH. Format: biochemical. The following applies: rat FAAH transfected SK-N-MC cell homogenate; 3H-AEA tracer 80 nM; rt 1 h. Here is the method: Assay Method 3 A. Transfection of Cells with Rat FAAH
A 10-cm tissue culture dish with a confluent monolayer of SK-N-MC cells was split 2 days (d) prior to transfection. Using sterile technique, the media was removed and the cells were detached from the dish by the addition of trypsin. One fifth of the cells were then placed onto a new 10-cm dish. Cells were grown in a 37° C. incubator with 5% CO2 in Minimal Essential Media Eagle with 10% Fetal Bovine Serum. After 2 d, cells were approximately 80% confluent. These cells were removed from the dish with trypsin and pelleted in a clinical centrifuge. The pellet was re-suspended in 400 μL complete media and transferred to an electroporation cuvette with a 0.4 cm gap between the electrodes. Supercoiled rat FMH cDNA (1 μg) was added to the cells and mixed. The voltage for the electroporation was set at 0.25 kV, and the capacitance was set at 960 μF. After electroporation, the cells were diluted into complete media (10 mL) and plated onto four 10-cm dishes. Because of the variability in the efficiency of electroporation, four different concentrations of cells were plated. […] After 10 d, dishes were analyzed for surviving colonies of cells. Dishes with well-isolated colonies were used. Cells from individual colonies were isolated and tested.
The assay mixture consisted of 50 μL of the cell homogenate, 10 μL of the test compound, and 40 μL of anandamide [1-^3H-ethanolamine] (^3H-AEA, Perkin-Elmer, 10.3 Ci/mmol), which was added last, for a final tracer concentration of 80 nM. The reaction mixture was incubated at rt for 1 h. During the incubation, 96-well Multiscreen filter plates (catalog number MAFCNOB50: Millipore, Bedford, Mass., USA) were loaded with 25 μL of activated charcoal (Multiscreen column loader, catalog number MACL09625, Millipore) and washed once with 100 μL of MeOH. […] After the 1 h incubation, 60 μL of the reaction mixture were transferred to the charcoal plates, which were then assembled on top of the DYNEX plates using Centrifuge Alignment Frames (catalog number MACF09604, Millipore). The unbound labeled ethanolamine was centrifuged through to the bottom plate (5 min at 2000 rpm), which was preloaded with the scintillant, as described above. The plates were sealed and left at rt for 1 h before counting on a Hewlett Packard TopCount.

Assay [3] deals with T2, FAAH (Homo sapiens, UniProt O00519).
T2 sequence (O00519 1-579): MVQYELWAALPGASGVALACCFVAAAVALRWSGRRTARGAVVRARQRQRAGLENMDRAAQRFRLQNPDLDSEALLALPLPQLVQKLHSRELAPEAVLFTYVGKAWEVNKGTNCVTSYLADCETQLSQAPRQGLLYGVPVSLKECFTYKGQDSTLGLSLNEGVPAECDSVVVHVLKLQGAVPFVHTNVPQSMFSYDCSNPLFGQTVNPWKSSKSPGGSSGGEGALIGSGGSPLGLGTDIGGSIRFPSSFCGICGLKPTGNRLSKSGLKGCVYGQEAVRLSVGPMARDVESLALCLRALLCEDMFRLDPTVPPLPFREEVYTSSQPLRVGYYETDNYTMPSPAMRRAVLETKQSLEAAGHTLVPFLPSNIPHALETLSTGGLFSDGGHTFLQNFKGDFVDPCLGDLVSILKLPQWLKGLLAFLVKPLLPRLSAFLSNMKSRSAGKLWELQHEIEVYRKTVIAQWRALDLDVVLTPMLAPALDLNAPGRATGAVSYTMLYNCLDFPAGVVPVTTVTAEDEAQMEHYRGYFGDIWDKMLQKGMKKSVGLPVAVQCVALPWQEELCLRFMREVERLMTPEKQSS
Put plainly: Assay Method 2: FAAH assay, homogenate of SK-N-MC cells transfected with human FAAH. Also noted: expressed in transfected cells; host or cells: SK-N-MC cells, electroporated, G418-selected clones. The following applies: human FAAH transfected SK-N-MC cell homogenate; 3H-AEA tracer 80 nM; rt 1 h. Format: biochemical. On the procedure: Assay Method 2 A. Transfection of Cells with Human FAAH
A 10-cm tissue culture dish with a confluent monolayer of SK-N-MC cells was split 2 days (d) prior to transfection. Using sterile technique, the media was removed and the cells were detached from the dish by the addition of trypsin. One fifth of the cells were then placed onto a new 10-cm dish. Cells were grown in a 37° C. incubator with 5% CO2 in Minimal Essential Media Eagle with 10% Fetal Bovine Serum. After 2 d, cells were approximately 80% confluent. These cells were removed from the dish with trypsin and pelleted in a clinical centrifuge. The pellet was re-suspended in 400 μL complete media and transferred to an electroporation cuvette with a 0.4 cm gap between the electrodes. Supercoiled human FMH cDNA (1 μg) was added to the cells and mixed. The voltage for the electroporation was set at 0.25 kV, and the capacitance was set at 960 μF. After electroporation, the cells were diluted into complete media (10 mL) and plated onto four 10-cm dishes. Because of the variability in the efficiency of electroporation, four different concentrations of cells were plated. The ratios used were 1:20, 1:10, and 1:5, with the remainder of the cells being added to the fourth dish. The cells were allowed to recover for 24 h before adding the selection media (complete media with 600 μg/mL G418). After 10 d, dishes were analyzed for surviving colonies of cells. Dishes with well-isolated colonies were used. Cells from individual colonies were isolated and tested.
The assay mixture consisted of 50 μL of the cell homogenate, 10 μL of the test compound, and 40 μL of anandamide [1-^3H-ethanolamine] (^3H-AEA, Perkin-Elmer, 10.3 Ci/mmol), which was added last, for a final tracer concentration of 80 nM. The reaction mixture was incubated at rt for 1 h. During the incubation, 96-well Multiscreen filter plates (catalog number MAFCNOB50; Millipore, Bedford, […]., USA) were loaded with 25 μL of activated charcoal (Multiscreen column loader, catalog number MACL09625, Millipore) and washed once with 100 μL of MeOH. Also during the incubation, 96-well DYNEX MicroLite plates (catalog number NL510410) were loaded with 100 μL of MicroScint40 (catalog number 6013641, Packard Bioscience, Meriden, Conn., USA). After the 1 h incubation, 60 μL of the reaction mixture were transferred to the charcoal plates, which were then assembled on top of the DYNEX plates using Centrifuge Alignment Frames (catalog number MACF09604, Millipore). The unbound labeled ethanolamine was centrifuged through to the bottom plate (5 min at 2000 rpm), which was preloaded with the scintillant, as described above. The plates were sealed and left at rt for 1 h before counting on a Hewlett Packard TopCount.

Assay [4] has as its target T2, FAAH. Also noted: T84 frozen pellets (contents of 1-4×15 cm culture dishes) were homogenized in 300 mL of FAAH assay buffer; endogenous in cells; host or cells: T84 cells (homogenate). The following applies: cited from earlier work.
The test system of assay [5] is rats. The note with it: cited from earlier work. The source holds these as a separate data set.
Assay [6] concerns rats. The following applies: cited from earlier work. The source holds these as a separate data set.
The test system of assay [7] is rats. The note with it: cited from earlier work. This is another data set of the same source.
The test system of assay [8] is rats. The note with it: rat; cited from earlier work.

Regarding `CCCCCCCCCCCCCCCCS(=O)(=O)F` [AM374], the reduction of spasticity result in the assay on CREAE mice is “significantly reduce spasticity”.

For `Cc1nc(-c2ccccc2)c(-c2ccccc2)n1CCCCCCNC(=O)Oc1ccccc1F` [BMS-1], in the assay with rats [1], the “analgesic effect in the Chung spinal nerve ligation model of neuropathic pain” value is “analgesic effect”. In the assay on rats [2], the “analgesic effect in the Hargraves test of acute thermal nociception” value was “analgesic effect”.

One may read the IC50 as the point on the concentration scale where inhibition reaches its midpoint. `O=C(Nc1ccccc1)N1CCN(c2nc(N3CCOCC3)ns2)CC1` [Example 44, 4-(3-Morpholin-4-yl-[1,2,4]thiadiazol-5-yl)-piperazine-1-carboxylic acid phenylamide]: the IC50 at Rat FAAH and on FAAH [3] was > 10 µM throughout.

For `O=C(CCCCCCc1ccccc1)c1ncc(-c2ccccn2)o1` [OL-135], at FAAH [4], the “inhibition of FAAH” value is listed as “potent inhibitor”. Further, the “analgesic activity in the tail emersion test of thermal nociception” value in the assay on rats [5] is given as “analgesic activity”. The “analgesic efficacy/activity in the hot plate test” value in the assay with rats [6] is on record as “analgesic activity”.

For `NC(=O)c1cccc(-c2cccc(OC(=O)NC3CCCCC3)c2)c1` [URB-597], in the assay with rats [7], the “efficacy in the zero plus maze model of anxiety” value is “efficacy”. Besides, the “analgesic efficacy/activity in the hot plate test” value in the assay on rats [6] is recorded as “analgesic efficacy”. Besides, in the assay on rats [8], the “analgesic efficacy in the formalin test” value was “analgesic efficacy”.
